Reference: US11180482B2, “Anilinopyrimidines as haematopoietic progenitor kinase 1 (HPK1) inhibitors” (Ariad Pharmaceuticals, Inc., priority 2016, dated 2021)

Each compound was assayed against Wild Type HPK1 (MAP4K1) Kinase (Homo sapiens (Human), UniProt Q92918) (assay: HPK1 Assay (Caliper EZ reader, fluorescein tagged peptide substrate)). Conditions: ATP 500 micromolar, kinase 6 nM, pH 7.4.
Sequence of Wild Type HPK1 (MAP4K1) Kinase (Q92918 whole entry, species assumed): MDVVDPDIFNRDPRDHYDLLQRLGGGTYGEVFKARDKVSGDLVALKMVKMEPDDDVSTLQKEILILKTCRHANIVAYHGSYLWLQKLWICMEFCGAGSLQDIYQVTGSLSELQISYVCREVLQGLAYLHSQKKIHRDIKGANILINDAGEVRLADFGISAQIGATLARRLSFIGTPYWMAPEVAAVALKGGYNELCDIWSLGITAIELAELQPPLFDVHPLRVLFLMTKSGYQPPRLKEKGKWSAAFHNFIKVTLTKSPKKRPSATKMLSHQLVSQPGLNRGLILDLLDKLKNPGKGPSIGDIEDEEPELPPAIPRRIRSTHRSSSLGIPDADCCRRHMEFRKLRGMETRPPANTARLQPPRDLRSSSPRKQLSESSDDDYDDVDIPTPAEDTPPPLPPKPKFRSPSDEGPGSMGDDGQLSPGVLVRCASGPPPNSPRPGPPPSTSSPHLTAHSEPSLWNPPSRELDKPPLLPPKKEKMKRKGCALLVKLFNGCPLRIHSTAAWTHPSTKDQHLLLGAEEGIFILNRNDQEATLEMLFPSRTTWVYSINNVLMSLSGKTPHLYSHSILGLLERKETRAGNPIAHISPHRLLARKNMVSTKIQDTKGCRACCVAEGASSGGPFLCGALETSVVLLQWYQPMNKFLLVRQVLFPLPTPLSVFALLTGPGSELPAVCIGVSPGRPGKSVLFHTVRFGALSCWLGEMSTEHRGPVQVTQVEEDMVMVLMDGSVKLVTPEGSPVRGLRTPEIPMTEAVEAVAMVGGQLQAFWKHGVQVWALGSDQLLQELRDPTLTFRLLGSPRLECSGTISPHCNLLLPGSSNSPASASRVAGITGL
Type: biochemical
Description: The enzymatic activity of Wild Type HPK1 (MAP4K1) Kinase was measured in the presence or absence of an inhibitor compound of the present disclosure by preparation of a reaction mixture containing a fluorescein tagged peptide (2 micromolar final concentration), ATP (Adenosine Triphosphate, 500 micromolar final concentration) and Wild Type kinase (6 nM final concentration) in a buffer system comprising 50 mM HEPES (Buffer), 3 mM MgCl2, 5% w/v Trehalose, 0.01% Brij 35 (Detergent), 0.1% Pluronic F127 (Surfactant), 0.1 mM EDTA (Ethylenediaminetetraacetic acid), 0.1 mM EGTA (ethylene glycol-bis(β-aminoethyl ether)-N,N,N′,N′-tetraacetic acid) and 1 mM DTT (Dithiothreitol) and at a pH of 7.4. The reactions were quenched by the addition of EDTA to a final concentration of 25 mM. A Caliper EZ reader was used to measure the extent of substrate to product conversion.
The peptide substrate used in the HPK1 assay was designed based on the amino acid sequence surrounding serine residue 376 of SLP76-Lymphocyte cytosolic protein 2 (a known intracellular substrate of HPK1). This sequence SSFPQSAsLPPYFSQ was modified as follows for use in Caliper assays of HPK1: the serine residues on either side of serine 376 were replaced with alanine, three lysine residues were added at the […] and a fluorescein tag (FAM) was attached to the […] to produce the sequence, FAM-FPQAAsLPPYFAKKK.
`COc1cc2c(cc1Nc1ncc(Cl)c(Nc3ccccc3P(C)(C)=O)n1)CN(C)C2` [Example I-1, (2-((5-Chloro-2-((6-methoxy-2-methylisoindolin-5-yl)amino)pyrimidin-4-yl)amino)phenyl)dimethylphosphine oxide] was tested, and the IC50 was 10 to 100 nM.
`COc1cc2c(cc1Nc1ncc(Cl)c(Nc3ccccc3P(C)(C)=O)n1)CN(C)CC2` [Example I-2, (2-((5-chloro-2-((6-methoxy-2-methyl-1,2,3,4-tetrahydroisoquinolin-7-yl)amino)pyrimidin-4-yl)amino)phenyl)dimethylphosphine oxide] was tested, and the IC50 was under 5 nM.
With `COc1cc2c(cc1Nc1ncc(Cl)c(Nc3ccccc3P(C)(C)=O)n1)CCN(C)CC2` [Example I-3, (2-((5-chloro-2-((8-methoxy-3-methyl-2,3,4,5-tetrahydro-1H-benzo[d]azepin-7-yl)amino)pyrimidin-4-yl)amino)phenyl)dimethylphosphine oxide] the IC50 was 10 to 100 nM.
Work on `COc1cc2c(cc1Nc1ncc(Cl)c(Nc3ccccc3P(C)(C)=O)n1)CCCN(C)C2` [Example I-4, (2-((5-chloro-2-((8-methoxy-2-methyl-2,3,4,5-tetrahydro-1H-benzo[c]azepin-7-yl)amino)pyrimidin-4-yl)amino)phenyl)dimethylphosphine oxide] yielded an IC50 of 10 to 100 nM.
With `CN1CCc2cc(F)c(Nc3ncc(Cl)c(Nc4ccccc4P(C)(C)=O)n3)cc2C1` [Example I-5, (2-((5-chloro-2-((6-fluoro-2-methyl-1,2,3,4-tetrahydroisoquinolin-7-yl)amino)pyrimidin-4-yl)amino)phenyl)dimethylphosphine oxide] the IC50 was under 5 nM.
Compound `CN1CCc2cc(Cl)c(Nc3ncc(Cl)c(Nc4ccccc4P(C)(C)=O)n3)cc2C1` [Example I-6, 5-chloro-N^2-(6-chloro-2-methyl-3,4-dihydro-1H-isoquinolin-7-yl)-N^4-(2-dimethylphosphorylphenyl)pyrimidine-2,4-diamine] has an IC50 of under 5 nM.
`CCc1cc2c(cc1Nc1ncc(Cl)c(Nc3ccccc3P(C)(C)=O)n1)CN(C)CC2` [Example I-7, 5-chloro-N^4-(2-dimethylphosphorylphenyl)-N^2-(6-ethyl-2-methyl-3,4-dihydro-1H-isoquinolin-7-yl)pyrimidine-2,4-diamine] was tested, and the IC50 was 5 to 10 nM.
For `C=Cc1cc2c(cc1Nc1ncc(Cl)c(Nc3ccccc3P(C)(C)=O)n1)CN(C)CC2` [Example I-8, 5-chloro-N^4-(2-dimethylphosphorylphenyl)-N^2-(2-methyl-6-vinyl-3,4-dihydro-1H-isoquinolin-7-yl)pyrimidine-2,4-diamine], the IC50 was 5 to 10 nM.
For `COc1c(Nc2ncc(Cl)c(Nc3ccccc3P(C)(C)=O)n2)cc2c(c1N)CC1CCCCN1C2` (stereo not shown) [Example I-9, N^8-[5-chloro-4-(2-dimethylphosphorylanilino)pyrimidin-2-yl]-9-methoxy-2,3,4,6,11,11a-hexahydro-1H-benzo[b]quinolizine-8,10-diamine], the IC50 was 10 to 100 nM.
Work on `COc1cc2c(cc1Nc1ncc(Cl)c(Nc3ccccc3P(C)(C)=O)n1)CN1CCCCC1C2` (stereo not shown) [Example I-10, 5-chloro-N^4-(2-dimethylphosphorylphenyl)N^2-(9-methoxy-2,3,4,6,11,11a-hexahydro-1H-benzo[b]quinolizin-8-yl)pyrimidine-2,4-diamine] yielded an IC50 of under 5 nM.
`COc1cc2c(cc1Nc1ncc(Cl)c(Nc3ccccc3P(C)(C)=O)n1)CN(C(C)C)CC2` [Example I-11, (2-((5-chloro-2-((2-isopropyl-6-methoxy-1,2,3,4-tetrahydroisoquinolin-7-yl)amino)pyrimidin-4-yl)amino)phenyl)dimethylphosphine oxide] was tested, and the IC50 was under 5 nM.
With `CCN1CCc2cc(OC)c(Nc3ncc(Cl)c(Nc4ccccc4P(C)(C)=O)n3)cc2C1` [Example I-12, (2-((5-chloro-2-((2-ethyl-6-methoxy-1,2,3,4-tetrahydroisoquinolin-7-yl)amino)pyrimidin-4-yl)amino)phenyl)dimethylphoshine oxide] the IC50 was under 5 nM.
`COc1cc2c(cc1Nc1ncc(Cl)c(Nc3ccccc3P(C)(C)=O)n1)[C@H](N(C)C)CCC2` [Example I-13, (R)-(2-((5-chloro-2-((8-(dimethylamino)-3-methoxy-5,6,7,8-tetrahydronaphthalen-2-yl)amino)pyrimidin-4-yl)amino)phenyl)dimethylphosphine oxide] was tested, and the IC50 was 10 to 100 nM.
`COc1cc2c(cc1Nc1ncc(Cl)c(Nc3ccccc3P(C)(C)=O)n1)[C@H](N(C)C)CC2` [Example I-14, (R)-(2-((5-chloro-2-((3-(dimethylamino)-6-methoxy-2,3-dihydro-1H-inden-5-yl)amino)pyrimidin-4-yl)amino)phenyl)dimethylphosphine oxide] gave an IC50 of 5 to 10 nM.
Work on `COc1cc2c(cc1Nc1ncc(Cl)c(Nc3ccccc3P(C)(C)=O)n1)[C@@H](N(C)C)CCC2` [Example I-15, (S)-(2-((5-chloro-2-((8-(dimethylamino)-3-methoxy-5,6,7,8-tetrahydronaphthalen-2-yl)amino)pyrimidin-4-yl)amino)phenyl)dimethylphosphine oxide] yielded an IC50 of 100 to 10000 nM.
In the case of `COc1cc2c(cc1Nc1ncc(Cl)c(Nc3ccccc3P(C)(C)=O)n1)[C@@H](N(C)C)CC2` [Example I-16, (S)-(2-((5-chloro-2-((3-(dimethylamino)-6-methoxy-2,3-dihydro-1H-inden-5-yl)amino)pyrimidin-4-yl)amino)phenyl)dimethylphosphine oxide], the IC50 is reported as 100 to 10000 nM.
With `COc1cc2c(cc1Nc1ncc(Cl)c(Nc3ccccc3P(C)(C)=O)n1)CC(N(C)C)C2` (stereo not shown) [Example I-17, (2-((5-chloro-2-((2-(dimethylamino)-6-methoxy-2,3-dihydro-1H-inden-5-yl)amino)pyrimidin-4-yl)amino)phenyl)dimethylphosphine oxide] the IC50 was 10 to 100 nM.
`COc1cc2c(cc1Nc1ncc(Cl)c(Nc3ccccc3P(C)(C)=O)n1)CCN(C)C2` [Example I-18, (2-((5-chloro-2-((7-methoxy-2-methyl-1,2,3,4-tetrahydroisoquinolin-6-yl)amino)pyrimidin-4-yl)amino)phenyl)dimethylphosphine oxide] was tested, and the IC50 was under 5 nM.
`CCP(=O)(CC)c1ccccc1Nc1nc(Nc2cc3c(cc2OC)CCN(C)C3)ncc1Cl` [Example I-19, (2-((5-chloro-2-((6-methoxy-2-methyl-1,2,3,4-tetrahydroisoquinolin-7-yl)amino)pyrimidin-4-yl)amino)phenyl)diethylphosphine oxide] showed an IC50 of under 5 nM.
Work on `CCP(=O)(CC)c1ccccc1Nc1nc(Nc2cc3c(cc2Cl)CCN(C)C3)ncc1Cl` [Example I-20, (2-((5-chloro-2-((6-chloro-2-methyl-1,2,3,4-tetrahydroisoquinolin-7-yl)amino)pyrimidin-4-yl)amino)phenyl)diethylphosphine oxide] yielded an IC50 of under 5 nM.
Work on `COc1cc2c(cc1Nc1ncc(Br)c(Nc3ccccc3P(C)(C)=O)n1)CN(C)CC2` [Example I-22, (2-((5-bromo-2-((6-methoxy-2-methyl-1,2,3,4-tetrahydroisoquinolin-7-yl)amino)pyrimidin-4-yl)amino)phenyl)dimethylphosphine oxide] yielded an IC50 of under 5 nM.
`COc1cc2c(cc1Nc1ncc(OC)c(Nc3ccccc3P(C)(C)=O)n1)CN(C)CC2` [Example I-23, (2-((5-methoxy-2-((6-methoxy-2-methyl-1,2,3,4-tetrahydroisoquinolin-7-yl)amino)pyrimidin-4-yl)amino)phenyl)dimethylphosphine oxide] was tested, and the IC50 was 5 to 10 nM.
Work on `CN1CCc2c(Br)cc(Nc3ncc(Cl)c(Nc4ccccc4P(C)(C)=O)n3)cc2C1` [Example I-24, (2-((2-((5-bromo-2-methyl-1,2,3,4-tetrahydroisoquinolin-7-yl)amino)-5-chloropyrimidin-4-yl)amino)phenyl)dimethylphosphine oxide] yielded an IC50 of under 5 nM.
`COc1cc2c(cc1Nc1nccc(Nc3ccccc3P(C)(C)=O)n1)CN(C)CC2` [Example I-25, (2-((2-((6-methoxy-2-methyl-1,2,3,4-tetrahydroisoquinolin-7-yl)amino)pyrimidin-4-yl)amino)phenyl)dimethylphosphine oxide] showed an IC50 of 100 to 10000 nM.
For `COc1cc2c(cc1Nc1ncc(F)c(Nc3ccccc3P(C)(C)=O)n1)CN(C)CC2` [Example I-26, (2-((5-fluoro-2-((6-methoxy-2-methyl-1,2,3,4-tetrahydroisoquinolin-7-yl)amino)pyrimidin-4-yl)amino)phenyl)dimethylphosphine oxide], the IC50 was 10 to 100 nM.
Compound `COc1cc2c(cc1Nc1ncc(C(F)(F)F)c(Nc3ccccc3P(C)(C)=O)n1)CN(C)CC2` [Example I-27, (2-((2-((6-methoxy-2-methyl-1,2,3,4-tetrahydroisoquinolin-7-yl)amino)-5-(trifluoromethyl)pyrimidin-4-yl)amino)phenyl)dimethylphosphine oxide] has an IC50 of 5 to 10 nM.
`COc1cc2c(cc1Nc1ncc(Cl)c(Nc3ccccc3P(C)(C)=O)n1)C(C)(C)N(C)CC2` [Example I-28, (2-((5-chloro-2-((6-methoxy-1,1,2-trimethyl-1,2,3,4-tetrahydroisoquinolin-7-yl)amino)pyrimidin-4-yl)amino)phenyl)dimethylphosphine oxide] showed an IC50 of 10 to 100 nM.
`COc1cc2c(cc1Nc1ncc(Cl)c(Nc3ccccc3P(C)(C)=O)n1)C(C)N(C)CC2` (stereo not shown) [Example I-29, (2-((5-chloro-2-((6-methoxy-1,2-dimethyl-1,2,3,4-tetrahydroisoquinolin-7-yl)amino)pyrimidin-4-yl)amino)phenyl)dimethylphosphine oxide] was tested, and the IC50 was under 5 nM.
